From patent US10196390B2, “TYK2 inhibitors and uses thereof” (Nimbus Lakshmi, Inc., priority 2014, dated 2019)
pKi: −log10 of the molar value.

Assays:
TYK2 = TYK2 (Homo sapiens (Human), UniProt P29597); test: Tyk2 activity inhibition assay (radioactive kinase assay / Caliper assay); format: biochemical
Outline: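 Radiometric format: TYK2 with peptide substrate (20 μM) and 33P-ATP at 10 μM in HEPES pH 7.5, 1% DMSO, 120 min at room temp, P81 paper capture. Caliper mobility-shift format: TYK2 9.75 nM, peptide 30 at 3 uM, ATP 16 uM (also 1 mM), 25 min at 28° C.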

JAK2 = JAK2 (Homo sapiens (Human), UniProt O60674); test: JAK2 activity inhibition assay (radioactive kinase assay / Caliper assay); format: biochemical; settings: read-out: JAK2 Ki
Outline: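 Mobility-shift (Caliper) read-out of phosphorylated peptide substrate. Compound diluted in 25 mM HEPES pH 7.5, 0.01% Brij-35, 0.01% Triton, 0.5 mM EGTA; enzyme added, then peptide plus ATP in 10 mM MgCl2. Incubated 25 min at 28° C, stopped with EDTA buffer.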

Chain of JAK2 (O60674 whole entry): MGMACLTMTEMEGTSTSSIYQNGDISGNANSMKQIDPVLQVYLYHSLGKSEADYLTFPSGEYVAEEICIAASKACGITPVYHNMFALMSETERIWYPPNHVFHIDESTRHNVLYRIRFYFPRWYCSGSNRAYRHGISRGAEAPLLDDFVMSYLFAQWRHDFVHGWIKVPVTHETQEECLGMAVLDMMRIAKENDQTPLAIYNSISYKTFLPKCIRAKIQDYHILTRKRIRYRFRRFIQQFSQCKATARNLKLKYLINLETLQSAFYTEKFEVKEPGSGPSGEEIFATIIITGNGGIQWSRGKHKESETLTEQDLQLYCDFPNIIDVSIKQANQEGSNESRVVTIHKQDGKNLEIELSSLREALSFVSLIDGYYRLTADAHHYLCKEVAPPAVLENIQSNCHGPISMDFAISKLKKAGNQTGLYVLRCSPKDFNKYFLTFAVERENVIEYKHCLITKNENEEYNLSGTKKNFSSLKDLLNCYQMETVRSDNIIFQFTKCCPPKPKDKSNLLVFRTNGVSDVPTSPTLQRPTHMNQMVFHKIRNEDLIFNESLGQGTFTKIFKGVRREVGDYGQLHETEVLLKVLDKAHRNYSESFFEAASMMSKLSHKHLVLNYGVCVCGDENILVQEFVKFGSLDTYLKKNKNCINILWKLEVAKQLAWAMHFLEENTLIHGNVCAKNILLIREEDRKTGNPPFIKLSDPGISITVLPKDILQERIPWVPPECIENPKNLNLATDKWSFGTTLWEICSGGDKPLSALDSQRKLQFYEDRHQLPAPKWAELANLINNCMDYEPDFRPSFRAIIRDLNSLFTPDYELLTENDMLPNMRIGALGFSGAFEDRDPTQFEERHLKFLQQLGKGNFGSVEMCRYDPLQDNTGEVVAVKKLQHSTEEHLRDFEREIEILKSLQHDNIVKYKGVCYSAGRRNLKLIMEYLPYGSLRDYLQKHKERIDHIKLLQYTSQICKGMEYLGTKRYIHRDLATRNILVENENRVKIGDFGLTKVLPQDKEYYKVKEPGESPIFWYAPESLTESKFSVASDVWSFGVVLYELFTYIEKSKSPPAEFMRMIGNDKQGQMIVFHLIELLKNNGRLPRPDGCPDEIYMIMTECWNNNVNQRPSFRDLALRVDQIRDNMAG
Chain of TYK2 (P29597 whole entry): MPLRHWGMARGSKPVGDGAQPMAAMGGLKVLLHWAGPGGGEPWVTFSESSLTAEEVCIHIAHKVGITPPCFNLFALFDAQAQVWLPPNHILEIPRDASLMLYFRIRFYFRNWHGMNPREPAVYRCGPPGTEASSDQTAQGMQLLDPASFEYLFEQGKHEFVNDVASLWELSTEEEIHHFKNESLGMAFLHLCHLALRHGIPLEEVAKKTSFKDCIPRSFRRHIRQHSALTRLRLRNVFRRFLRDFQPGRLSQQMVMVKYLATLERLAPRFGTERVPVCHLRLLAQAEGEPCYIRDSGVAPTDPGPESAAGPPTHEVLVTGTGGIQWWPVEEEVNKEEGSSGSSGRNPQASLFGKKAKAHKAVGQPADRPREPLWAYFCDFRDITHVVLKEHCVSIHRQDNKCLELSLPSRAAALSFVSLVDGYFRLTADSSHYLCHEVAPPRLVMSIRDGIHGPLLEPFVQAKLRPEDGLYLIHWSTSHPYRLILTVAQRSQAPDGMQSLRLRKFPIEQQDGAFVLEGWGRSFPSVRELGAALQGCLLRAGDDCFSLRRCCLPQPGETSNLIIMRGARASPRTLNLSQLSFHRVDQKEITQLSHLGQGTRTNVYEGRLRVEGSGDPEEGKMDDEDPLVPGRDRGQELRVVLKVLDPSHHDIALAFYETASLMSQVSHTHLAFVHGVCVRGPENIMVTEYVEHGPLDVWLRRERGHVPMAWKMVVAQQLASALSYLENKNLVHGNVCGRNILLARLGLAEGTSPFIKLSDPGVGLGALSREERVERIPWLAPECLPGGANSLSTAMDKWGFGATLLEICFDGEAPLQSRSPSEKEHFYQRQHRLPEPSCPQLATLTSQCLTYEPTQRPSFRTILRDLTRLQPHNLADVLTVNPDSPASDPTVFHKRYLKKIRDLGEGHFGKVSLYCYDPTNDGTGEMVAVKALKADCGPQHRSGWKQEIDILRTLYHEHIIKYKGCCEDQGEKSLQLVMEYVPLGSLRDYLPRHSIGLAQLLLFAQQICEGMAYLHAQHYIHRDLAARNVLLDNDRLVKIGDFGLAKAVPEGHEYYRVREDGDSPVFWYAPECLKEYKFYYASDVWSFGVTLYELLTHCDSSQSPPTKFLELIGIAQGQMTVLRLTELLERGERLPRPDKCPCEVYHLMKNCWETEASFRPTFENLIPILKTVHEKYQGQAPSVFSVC

| pKi (TYK2) | pKi (JAK2) | SMILES |
| --- | --- | --- |
| 7.00 to 8.00 | < 6.00 | Cn1cc(Nc2nc(-c3c(F)cccc3F)nc3c2C(=O)NC3)cn1 [Compound I-160, 2-(2,6-difluorophenyl)-4-((1-methyl-1H-pyrazol-4-yl)amino)-6,7-dihydro-5H-pyrrolo[3,4-d]pyrimidin-5-one] |
| > 8.00 | 7.00 to 8.00 | O=C1NCc2nc(-c3c(F)cccc3F)cc(Nc3ccc(N4CCNCC4)cn3)c21 [Compound I-162, 2-(2,6-difluorophenyl)-4-((5-(piperazin-1-yl)pyridin-2-yl)amino)-6,7-dihydro-5H-pyrrolo[3,4-b]pyridin-5-one] |
| > 8.00 | 6.00 to 7.00 | O=C1NCc2nc(-c3c(F)cccc3F)nc(Nc3ccc(C(=O)N4CC(O)C4)cc3)c21 [Compound I-168, 2-(2,6-difluorophenyl)-4-((4-(3-hydroxyazetidine-1-carbo-nyl)phenyl)amino)-6,7-dihydro-5H-pyrrolo[3,4-d]pyrimidin-5-one] |
| > 8.00 | 7.00 to 8.00 | CC1(c2ccc(Nc3nc(-c4c(F)cccc4F)nc4c3C(=O)NC4)cc2)NC(=O)NC1=O (centres unmarked) [Compound I-172, 5-(4-((2-(2,6-difluorophenyl)-5-oxo-6,7-dihydro-5H-pyrrolo[3,4-d]pyrimidin-4-yl)amino)phenyl)-5-methylimidazolidine-2,4-dione] |
| > 8.00 | 7.00 to 8.00 | C[C@]1(c2ccc(Nc3nc(-c4c(F)cccc4F)nc4c3C(=O)NC4)cc2)NC(=O)NC1=O [Compound I-174, (R)-5-(4-((2-(2,6-difluorophenyl)-5-oxo-6,7-dihydro-5H-pyrrolo[3,4-d]pyrimidin-4-yl)amino)phenyl)-5-methylimidazolidine-2,4-dione] |
| > 8.00 | 7.00 to 8.00 | CN1CC2(C1)CN(c1ccc(Nc3cc(-c4c(F)cccc4F)nc4c3C(=O)NC4)nc1)C2 [Compound I-187, 2-(2,6-difluorophenyl)-4-((5-(6-methyl-2,6-diazaspiro-[3.3]heptan-2-yl)pyridin-2-yl)amino)-6,7-dihydro-5-pyrrolo[3,4-b]pyridin-5-one] |
| > 8.00 | 7.00 to 8.00 | COC(=O)Cc1ccc(Nc2cc(-c3c(F)cccc3Cl)nc3c2C(=O)NC3)nc1 [Compound I-200, methyl 2-(6-((2-(2-chloro-6-fluorophenyl)-5-oxo-6,7-dihydro-5H-pyrrolo[3,4-b]pyridin-4-yl)amino)pyridin-3-yl)acetate] |

The next lines start with the compound.

| SMILES | pKi (TYK2) | pKi (JAK2) |
| --- | --- | --- |
| N[C@@H]1CCCN(c2ccc(Nc3cc(-c4c(F)cccc4F)nc4c3C(=O)NC4)nc2)C1 [Compound I-159, (R)-4-((5-(3-aminopiperidin-1-yl)pyridin-2-yl)amino)-2-(2,6-difluorophenyl)-6,7-dihydro-5H-pyrrolo[3,4-b]pyridin-5-one] | > 8.00 | > 8.00 |
| O=C(NCCO)c1ccc(Nc2cc(-c3c(F)cccc3F)nc3c2C(=O)NC3)nc1 [Compound I-164, 6-((2-(2,6-difluorophenyl)-5-oxo-6,7-dihydro-5H-pyrrolo[3,4-b]pyridin-4-yl)amino)-N-(2-hydroxyethyl)nicotinamide] | > 8.00 | 7.00 to 8.00 |
| C[C@@]1(c2ccc(Nc3nc(-c4c(F)cccc4F)nc4c3C(=O)NC4)cc2)NC(=O)NC1=O [Compound I-173, (S)-5-(4-((2-(2,6-difluorophenyl)-5-oxo-6,7-dihydro-5H-pyrrolo[3,4-d]pyrimidin-4-yl)amino)phenyl)-5-methylimidazolidine-2,4-dione] | > 8.00 | 7.00 to 8.00 |
| CCOC(=O)C(C)(C)c1ccc(Nc2nc(-c3c(F)cccc3F)nc3c2C(=O)NC3)cc1 [Compound I-178, ethyl 2-(4-((2-(2,6-difluorophenyl)-5-oxo-6,7-dihydro-5H-pyrrolo[3,4-d]pyrimidin-4-yl)amino)phenyl)-2-methylpropanoate] | > 8.00 | 6.00 to 7.00 |
| O=C1NCc2nc(-c3c(F)cccc3F)nc(Nc3ccccc3)c21 [Compound I-179, 2-(2,6-difluorophenyl)-4-(phenylamino)-6,7-dihydro-5H-pyrrolo[3,4-d]pyrimidin-5-one] | 7.00 to 8.00 | 6.00 to 7.00 |
| O=C1NCc2nc(-c3c(F)cccc3F)nc(Nc3ccc(Cl)cc3)c21 [Compound I-180, 4-((4-chlorophenyl)amino)-2-(2,6-difluorophenyl)-6,7-dihydro-5H-pyrrolo[3,4-d]pyrimidin-5-one] | 7.00 to 8.00 | < 6.00 |
| COc1ccc(Nc2nc(N3[C@H](C)CCC[C@@H]3C)nc3c2C(=O)NC3)cc1 [Compound I-183, 2-((2R,6S)-2,6-dimethylpiperidin-1-yl)-4-((4-methoxyphenyl)amino)-6,7-dihydro-5H-pyrrolo[3,4-d]pyrimidin-5-one] | > 8.00 | 7.00 to 8.00 |
| COCCOc1ccc(Nc2nc(-c3c(F)cccc3F)nc3c2C(=O)NC3)cc1 [Compound I-185, 2-(2,6-difluorophenyl)-4-((4-(2-methoxy-ethoxy)-phenyl)amino)-6,7-dihydro-5H-pyrrolo[3,4-d]pyrimidin-5-one] | > 8.00 | 6.00 to 7.00 |
| O=C(O)Cc1ccc(Nc2cc(-c3c(F)cccc3F)nc3c2C(=O)NC3)nc1 [Compound I-186, 2-(6-((2-(2,6-difluorophenyl)-5-oxo-6,7-dihydro-5H-pyrrolo[3,4-b]pyridin-4-yl)amino)pyridin-3-yl)acetic Acid] | > 8.00 | 6.00 to 7.00 |
| CC(C(=O)O)c1ccc(Nc2nc(-c3c(F)cccc3F)nc3c2C(=O)NC3)cc1 (centres unmarked) [Compound I-189, 2-(4-((2-(2,6-difluorophenyl)-5-oxo-6,7-dihydro-5H-pyrrolo[3,4-d]pyrimidin-4-yl)amino)phenyl)propanoic Acid] | > 8.00 | 6.00 to 7.00 |
| O=C1NC(=O)C(c2ccc(Nc3nc(-c4c(F)cccc4F)nc4c3C(=O)NC4)cc2)S1 (centres unmarked) [Compound I-192, 5-(4-((2-(2,6-difluorophenyl)-5-oxo-6,7-dihydro-5H-pyrrolo[3,4-d]pyrimidin-4-yl)amino)phenyl)thiazolidine-2,4-dione] | > 8.00 | 6.00 to 7.00 |
| CN(CC(C)(C)O)C(=O)Cc1ccc(Nc2nc(-c3c(F)cccc3F)nc3c2C(=O)NC3)cc1 [Compound I-193, 2-(4-((2-(2,6-difluorophenyl)-5-oxo-6,7-dihydro-5H-pyrrolo[3,4-d]pyrimidin-4-yl)amino)phenyl)-N-(2-hydroxy-2-methylpropyl)-N-methylacetamide] | > 8.00 | 6.00 to 7.00 |
| O=C1NCc2nc(-c3c(F)cccc3F)nc(Nc3ccc(CC(=O)N4CCOC[C@@H]4C(=O)O)cc3)c21 [Compound I-194, (R)-4-(2-(4-((2-(2,6-difluorophenyl)-5-oxo-6,7-dihydro-5H-pyrrolo[3,4-d]pyrimidin-4-yl)amino)phenyl)acetyl)morpholine-3-carboxylic Acid] | 7.00 to 8.00 | 6.00 to 7.00 |
| CC(C(=O)N1CCCCC1)c1ccc(Nc2nc(-c3c(F)cccc3F)nc3c2C(=O)NC3)cc1 (centres unmarked) [Compound I-198, 2-(2,6-difluorophenyl)-4-((4-(1-oxo-1-(piperidin-1-yl)propan-2-yl)phenyl)amino)-6,7-dihydro-5H-pyrrolo[3,4-d]pyrimidin-5-one] | > 8.00 | 6.00 to 7.00 |
| CCNC(=O)Cc1ccc(Nc2cc(-c3c(F)cccc3Cl)nc3c2C(=O)NC3)nc1 [Compound I-199, 2-(6-((2-(2-chloro-6-fluorophenyl)-5-oxo-6,7-dihydro-5H-pyrrolo[3,4-b]pyridin-4-yl)amino)pyridin-3-yl)-N-ethylacetamide] | > 8.00 | 7.00 to 8.00 |
